In ChEMBL document CHEMBL2440069, “Synthesis and biological evaluation of direct thrombin inhibitors bearing 4-(piperidin-1-yl)pyridine at the P1 position with potent anticoagulant activity” (J Med Chem, 2013):

Tests used:
Coagulation factor X = Coagulation factor X (Homo sapiens, UniProt P00742); assay: Inhibition of human factor 10a using Z-D-Arg-Gly-Arg-p-NA as substrate by chromogenic assay
Prothrombin [1] = target: Prothrombin (Bos taurus, UniProt P00735); assay: Inhibition of bovine thrombin using D-Phe-Pip-Arg-p-NA as substrate by chromogenic assay
[2] = Dissociation constant, pKa of the compound by potentiometric titration; format: physicochemical
Plasma = assay: Anticoagulant activity in human plasma assessed as concentration required to double activated […] time; format: functional
[3] = 1-octanol-water partition coefficient, log P of the neutral form compound by HILIC analysis; format: physicochemical
Chymotrypsinogen A = Chymotrypsinogen A (Bos taurus, UniProt P00766); assay: Inhibition of bovine alpha-chymotrypsin using N-succinyl-Ala-Ala-Pro-Phe-p-NA as substrate by chromogenic assay
Coagulation factor VII = target: T1, Coagulation factor VII (Homo sapiens, UniProt P08709); assay: Inhibition of human recombinant factor 7a using spectrozyme as substrate by chromogenic assay
T1 sequence (P08709 whole entry): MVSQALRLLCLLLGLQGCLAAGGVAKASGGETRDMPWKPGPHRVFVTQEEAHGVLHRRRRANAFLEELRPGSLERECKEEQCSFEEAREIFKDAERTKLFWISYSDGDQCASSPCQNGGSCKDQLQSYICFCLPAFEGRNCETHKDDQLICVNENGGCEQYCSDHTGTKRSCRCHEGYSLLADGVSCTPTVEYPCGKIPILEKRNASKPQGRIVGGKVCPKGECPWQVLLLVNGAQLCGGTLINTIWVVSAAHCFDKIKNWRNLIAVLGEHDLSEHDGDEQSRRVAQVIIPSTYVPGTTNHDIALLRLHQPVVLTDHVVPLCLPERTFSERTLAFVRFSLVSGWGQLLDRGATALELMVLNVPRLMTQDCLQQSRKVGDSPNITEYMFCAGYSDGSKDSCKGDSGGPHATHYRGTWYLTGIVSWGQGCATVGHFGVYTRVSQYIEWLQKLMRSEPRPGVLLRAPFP

Prothrombin [4] = target: Prothrombin (Homo sapiens, UniProt P00734); assay: Inhibition of human thrombin using D-Phe-Pip-Arg-p-NA as substrate by chromogenic assay
[5] = Inhibition of bovine pancreatic trypsin using D-Phe-Pip-Arg-p-NA as substrate by chromogenic assay; set-up: species or system Bos taurus
Neutrophil elastase = target: T2, Neutrophil elastase (Homo sapiens, UniProt P08246); assay: Inhibition of human neutrophil leukocyte elastase using N-(methoxysuccinyl)-Ala-Ala-Pro-Val-p-NA as substrate by chromogenic assay
T2 sequence (P08246 whole entry): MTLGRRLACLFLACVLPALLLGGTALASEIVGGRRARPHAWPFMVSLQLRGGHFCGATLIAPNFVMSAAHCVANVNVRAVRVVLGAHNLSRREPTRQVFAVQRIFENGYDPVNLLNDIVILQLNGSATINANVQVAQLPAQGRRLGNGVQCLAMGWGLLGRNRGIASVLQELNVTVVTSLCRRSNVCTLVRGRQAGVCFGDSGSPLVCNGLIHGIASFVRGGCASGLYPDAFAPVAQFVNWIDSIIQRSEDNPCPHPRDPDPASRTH

[6] = Permeability of the compound at pH 8 by PAMPA assay; format: ADME
[7] = Permeability of the compound at pH 6.8 by PAMPA assay; format: ADME
[8] = 1-octanol-water partition coefficient, log D of the compound; format: physicochemical
Mus musculus [9] = assay: Ex vivo anticoagulant activity in CD1 mouse plasma assessed as activated partial thromboplastin time at 100 mg/kg, po after 2 hrs; format: functional
Mus musculus [10] = assay: Ex vivo anticoagulant activity in CD1 mouse plasma assessed as activated partial thromboplastin time at 100 mg/kg, po after 1 hr; format: functional

Sequence of Coagulation factor X (P00742 41-179 limits assumed): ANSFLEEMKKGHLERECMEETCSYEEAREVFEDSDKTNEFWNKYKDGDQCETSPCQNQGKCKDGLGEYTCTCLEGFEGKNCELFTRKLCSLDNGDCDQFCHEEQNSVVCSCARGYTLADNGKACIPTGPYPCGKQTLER
Sequence of Coagulation factor X (P00742 235-488 limits assumed): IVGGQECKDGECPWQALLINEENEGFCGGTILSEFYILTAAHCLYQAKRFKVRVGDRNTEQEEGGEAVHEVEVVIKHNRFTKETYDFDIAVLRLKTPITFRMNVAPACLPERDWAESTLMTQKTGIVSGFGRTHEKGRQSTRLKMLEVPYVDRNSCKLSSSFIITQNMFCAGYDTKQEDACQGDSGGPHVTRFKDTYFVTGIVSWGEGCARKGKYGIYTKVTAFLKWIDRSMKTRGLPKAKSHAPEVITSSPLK

Compound	Ki (Coagulation factor X)	Ki (Prothrombin [1]; read-out: Ki)	pKa [2]	other results
O=C(Nc1cccc(OCc2ccc([N+](=O)[O-])cc2)c1)C1CCN(c2ccncc2)CC1	6 µM	5.85 µM	–	–
CC(=N)N1CCC(C(=O)Nc2cccc(OCc3ccc(F)cc3)c2)CC1	57.3 µM	> 250 µM	–	–
O=C(Nc1cccc(OCc2ccc(C(F)(F)F)cc2)c1)C1CCN(c2ccncc2)CC1	48.5 µM	3.4 µM	–	–
O=C(Nc1cccc(OCc2ccc(F)cc2)c1)C1CCN(c2ccccn2)CC1	78 µM	> 250 µM	8.5	–
CN(C(=O)C1CCN(c2ccncc2)CC1)c1cccc(OCc2cccc(F)c2)c1	23.6 µM	> 250 µM	–	–
O=C(Nc1cccc(OCc2ccccc2)c1)C1CCN(c2ccncc2)CC1	7.46 µM	39.5 µM	–	–
Nc1ccc(N2CCC(C(=O)Nc3cccc(OCc4ccc(F)cc4)c3)CC2)cc1	63.5 µM	> 250 µM	3	–
O=C(Nc1cccc(OCc2ccc(F)cc2)c1)C1CCN(c2ccncc2)CC1	–	–	8.9	Ki (Coagulation factor VII): > 250 µM; 2aPTT (Plasma): 59 µM; logP [3]: 5.1; Ki (Prothrombin [4]): 0.014 µM; Ki [5]: > 250 µM; Ki (Chymotrypsinogen A): 71.6 µM; Ki (Neutrophil elastase): 68.7 µM
O=C(Nc1cccc(OCc2ccc(F)cc2)c1)C1CCN(Cc2ccncc2)CC1	47.1 µM	15.3 µM	3.3	log Pe [6]: impermeable; log Pe [7]: impermeable
O=C(Nc1cccc(OCc2ccc(F)cc2)c1)C1CCNCC1	–	–	9.8	–
O=C(Nc1ccccc1OCc1cccc(F)c1)C1CCN(c2ccncc2)CC1	> 250 µM	> 250 µM	–	–
O=C(Nc1cccc(OCc2cccc([N+](=O)[O-])c2)c1)C1CCN(c2ccncc2)CC1	6.73 µM	26.8 µM	–	–
O=C(Nc1cccc(OCc2cccc(Br)c2)c1)C1CCN(c2ccncc2)CC1	6.31 µM	20.9 µM	–	–
O=C(Nc1cccc(CCc2cccc(F)c2)c1)C1CCN(c2ccncc2)CC1	44.1 µM	12.4 µM	–	logD [8]: 3.58; Ki (Prothrombin [1]; read-out: pKi (converted)): 12.3 µM
Fc1cccc(COc2cccc(NCC3CCN(c4ccncc4)CC3)c2)c1	3.83 µM	> 250 µM	–	–
CN(C)Cc1ccc(COc2cccc(NC(=O)C3CCN(c4ccncc4)CC3)c2)cc1	12.2 µM	8.19 µM	–	–
CS(=O)(=O)c1ccccc1COc1cccc(NC(=O)C2CCN(c3ccncc3)CC2)c1	35.1 µM	12.3 µM	–	–
Nc1ccc(COc2cccc(NC(=O)C3CCN(c4ccncc4)CC3)c2)cc1	25 µM	10 µM	–	–
CC(C)N1CCC(C(=O)Nc2cccc(OCc3ccc(F)cc3)c2)CC1	> 250 µM	> 250 µM	9.4	–
O=C(Nc1cccc(OCc2ccc(F)cc2)c1)C1CCN(c2ncccn2)CC1	91.6 µM	26.8 µM	6	log Pe [6]: impermeable; log Pe [7]: impermeable
O=C(Nc1cccc(COc2cccc(F)c2)c1)C1CCN(c2ccncc2)CC1	> 250 µM	18.2 µM	–	logD [8]: 3.02
O=C(Nc1cccc(OCc2ccc(F)cc2F)c1)C1CCN(c2ccncc2)CC1	8.8 µM	4.64 µM	–	–
Nc1cccc(COc2cccc(NC(=O)C3CCN(c4ccncc4)CC3)c2)c1	36.1 µM	13.3 µM	–	–
CS(=O)(=O)c1cccc(COc2cccc(NC(=O)C3CCN(c4ccncc4)CC3)c2)c1	15.6 µM	15.9 µM	–	–

Further compounds by falling Ki (Prothrombin [1]; read-out: Ki), results first:

Ki (Coagulation factor X)	Ki (Prothrombin [1]; read-out: Ki)	pKa [2]	Compound	other results
37.1 µM	2.03 µM	–	O=C(Nc1cccc(OCc2ccc(Br)cc2)c1)C1CCN(c2ccncc2)CC1	–
11.1 µM	2.03 µM	–	COc1ccc(COc2cccc(NC(=O)C3CCN(c4ccncc4)CC3)c2)cc1	–
16.4 µM	1.3 µM	–	COc1ccccc1COc1cccc(NC(=O)C2CCN(c3ccncc3)CC2)c1	–
7.23 µM	1.15 µM	–	COc1cccc(COc2cccc(NC(=O)C3CCN(c4ccncc4)CC3)c2)c1	–
2.14 µM	0.488 µM	–	O=C(Nc1cccc(OCCc2cccc(F)c2)c1)C1CCN(c2ccncc2)CC1	Ki (Prothrombin [1]; read-out: pKi (converted)): 18.2 µM
29.6 µM	0.26 µM	–	O=C(Nc1cccc(OCc2ccc(Cl)cc2)c1)C1CCN(c2ccncc2)CC1	–
> 250 µM	0.156 µM	–	O=C(Nc1cccc(OCc2cccc(Cl)c2)c1)C1CCN(c2ccncc2)CC1	–
7.73 µM	0.124 µM	9.1	CS(=O)(=O)c1ccc(COc2cccc(NC(=O)C3CCN(c4ccncc4)CC3)c2)cc1	2aPTT (Plasma): 98.2 µM; logP [3]: 4.9; Ki (Chymotrypsinogen A): > 250 µM
126 µM	0.083 µM	8.9	COc1cc(COc2cccc(NC(=O)C3CCN(c4ccncc4)CC3)c2)cc(OC)c1	2aPTT (Plasma): 200 µM; logP [3]: 4.9; Ki (Chymotrypsinogen A): 33.8 µM
6.83 µM	0.064 µM	9.2	O=C(Nc1cccc(OCc2ccccc2F)c1)C1CCN(c2ccncc2)CC1	Ki (Coagulation factor VII): > 250 µM; 2aPTT (Plasma): 19.8 µM; logP [3]: 4.9; Ki (Prothrombin [4]): 0.09 µM; Ki [5]: 27 µM; Ki (Chymotrypsinogen A): 71.6 µM; Ki (Neutrophil elastase): > 250 µM
27 µM	0.063 µM	9.2	O=C(Nc1cccc(OCc2cc(F)cc(F)c2)c1)C1CCN(c2ccncc2)CC1	Ki (Coagulation factor VII): > 250 µM; 2aPTT (Plasma): 26.3 µM; logP [3]: 5.2; Ki (Prothrombin [4]): 0.031 µM; Ki [5]: > 250 µM; Ki (Chymotrypsinogen A): 31.4 µM; Ki (Neutrophil elastase): > 250 µM
3.72 µM	0.053 µM	9.1	O=C(Nc1cccc(OCc2ccc3c(c2)OCO3)c1)C1CCN(c2ccncc2)CC1	2aPTT (Plasma): >200 µM; logP [3]: 4.9; Ki (Chymotrypsinogen A): > 250 µM; log Pe [7]: impermeable
0.606 µM	0.031 µM	9.2	COc1ccc(COc2cccc(NC(=O)C3CCN(c4ccncc4)CC3)c2)cc1OC	Ki (Coagulation factor VII): > 250 µM; 2aPTT (Plasma): 154 µM; logP [3]: 4.9; Ki (Prothrombin [4]): 0.755 µM; Ki [5]: 27 µM; Ki (Chymotrypsinogen A): 71.5 µM; Ki (Neutrophil elastase): > 250 µM
–	0.006 µM	9	O=C(Nc1cccc(OCc2cccc(F)c2)c1)C1CCN(c2ccncc2)CC1	Ki (Coagulation factor VII): > 250 µM; Activity (Mus musculus [9]): 43%; 2aPTT (Plasma): 6.6 µM; logP [3]: 5; Ki (Prothrombin [4]): 0.016 µM; Activity (Mus musculus [10]): 36%; logD [8]: 3.14; Ki [5]: > 250 µM; Ki (Chymotrypsinogen A): 6.6 µM; Ki (Neutrophil elastase): 11.3 µM
